We go through 20 compounds from patent US9340500B2, “Aromatic heterocyclic derivative having TRPV4-inhibiting activity” (SHIONOGI & CO., LTD., priority 2011, dated 2016).

The target of data set [1] is T1, human TRPV4 (Homo sapiens (Human), UniProt Q9HBA0). The experiment in a line: Test Example 1: measurement of TRPV4 inhibitory activity (Fluo 4-AM, FLIPR TETRA, 4α-PDD 1 μmol/L). Format: cell-based. The settings on record: hTRPV4/CHO cells; for IC50: 4α-PDD 1 μmol/L; for Ki: calculated from IC50 and 4α-PDD EC50. As to the method:
(§1) For each compound, TRPV4 inhibitory activity was measured using cells.
(§2) (1) The TRPV4 inhibitory activity was measured using CHO-K1 cells stably expressing human TRPV4 (hTRPV4/CHO cells).
(2) In the day before the experimental day, frozen cell were thawed and washed with the culture medium (MEM-α, 10% FBS, 2 mmol/L GlutaMax, 50 unit Penicillin, 50 μg/mL Streptomycin). Then cells were suspended in the culture medium.
(3) The 384-well plates which hTRPV4/CHO cells were seeded at densities of 4000 cells/well in the culture medium and cultured in a CO2 incubator in the presence of 5% CO2 at 37° C. for overnight was used as assay plates.
(4) The assay plate was washed with assay buffer (Hanks, 20 mmol/L HEPES, 2.5 mmol/L probenecid, pH7.4), and the buffer were remained at 20 μL/well.
(5) 10 μl of dye loading buffer (9 μmol/L Fluo 4-AM, 0.09% Pluronic F-127/assay buffer) was added to each well, then the assay plate was incubated in a CO2 incubator in the presence of 5% CO2 at 37° C. for one hour. (final 3 μmol/L Fluo4-AM).
(6) The assay plate was washed with the assay buffer, and the buffers were remained at 20 μL/well. Then the assay plate was incubated for 10 min at room temperature.
(7) Diluted compound solution was dispensed to each well in the compound plate, and mixed with built-in Pipette and Mixer of the Fluorescence analysis system FLIPR TETRA (Molecular devices).
(8) After incubation for 5 min, 20 μL of 4α-PDD solution were applied to each well of assay plate and mixed with the FLIPR TETRA. (final 1 μmol/L 4α-PDD)
(9) The fluorescent intensity was measured with FLIPR TETRA system for 10 min from the point of time addition the compound solution, at Ex 470-495 nm, Em 515-575 nm wavelength.
TRPV4 inhibitory activity (IC50 value and Ki value) of a compound was evaluated according to the following procedure.
(10) In the presence of the compound, the difference between maximal and minimal of fluorescent intensity value for 5 min from just before addition of 4α-PDD solution was calculated, and it was referred as Max-Min value. Max-Min value of the Ruthenium Red at 20 μM was defined as 100% inhibitory activity, Max-Min value in the absence of the compound was defined as 0% inhibitory activity. The TRPV4 inhibitory activity of the compound was calculated by the following formula. (1−(Max-Min value of the compound−100% inhibitory activity)/(0% inhibitory activity−100% inhibitory activity))×100 (11) Inhibitory activity was calculated at 10 points with three fold serial dilution, in the final concentration of the compound from 10 μmmol/L to 0.5 nmol/L, the IC50 value was calculated by logistic approximation method. (12) In the absence of the compound, the fluorescent intensity was measured as the same method with 10, 1, 0.5, 0.2, and 0 μmol/L as final concentration of 4α-PDD. The difference of minimal and maximal fluorescent intensity value for 5 min from just before addition of 4α-PDD solution was calculated, and it was referred as Max-Min value. Max-Min value of the 4α-PDD at 10 μmol/L was defined as 100% activity, Max-Min value in the absence of 4α-PDD was defined as 0% activity. The TRPV4 activity of each concentration of 4α-PDD was calculated by the following formula. (Max-Min value of the each 4α-PDD concentration−0% activity)/(100% activity−0% activity))×100 (13) Effective activity was calculated in 5 concentrations of 4α-PDD the above. The EC50 value was calculated by logistic approximation method. The Ki value of a compound was calculated by the following formula. Ki (nmol/L)=IC50 value (nmol/L)/(1+[…] (test 4α-PDD concentration (nmol/L)/EC50 value (nmol/L))

In data set [2] the target is T1, human TRPV4. The experiment in a line: Test Example 3: measurement of TRPV4 inhibitory activity (Fluo-3, FDSS 3000, 4α-PDD). In kind it is cell-based. The following applies: hTRPV4/CHO cells, calculated from IC50 and 4α-PDD EC50. Here is the method: as §1, §2
(2) Frozen cells were thawed and subcultured with the medium (MEM-α, 10% FBS, […], 50 unit/mL penicillin, 50 μg/mL streptomycin, 1 mg/mL G418).
(3) The 96-well plates which hTRPV4/CHO cells were seeded at densities of 2×10^4 cells/well in the culture medium and cultured in a CO2 incubator in the presence of 5% CO2 at 37° C. for 24 h was used as assay plates.
(4) The assay plate was washed with assay buffer (Hanks, […], […], pH7.4).
(5) Fluo-3, fluorescent dye for Ca influx assay was added to each well, then the assay plate was incubated in a CO2 incubator in the presence of 5% CO2 at 37° C. for one hour (final conc.; 5 μmmol/L Fluo-3).
(6) The assay plate was washed with the assay buffer, and the buffer was remained at 30 μL/well. Then the assay plate was incubated for 10 min at 37° C.
(7) Diluted compound solution was dispensed to each well in the compound plate, and mixed with built-in Pipette and Mixer of the fluorescence analysis system FDSS 3000 (Hamamatsu Photonics).
(8) 50 μL of 4α-PDD solution (concluding 0.1% Pluronic F-127) was applied to each well of assay plate and mixed.
(9) The fluorescent intensity was measured by FDSS 3000 for 8 min from the point of time addition the compound solution, at Ex 480 nm, Em 540 nm wavelength.
TRPV4 inhibitory activity (Ki value) of a compound was evaluated according to the following procedure.
(10) In the presence of the compound, the difference between maximal and minimal of fluorescent intensity value for 8 min from just before addition of 4α-PDD solution was calculated, and it was referred as Max-Min value. Max-Min value of the Ruthenium Red at 10 μM was defined as 100% inhibitory activity, Max-Min value in the absence of the compound was defined as 0% inhibitory activity. The TRPV4 inhibitory activity of the compound was calculated by the following formula. (1−(Max-Min value of the compound−100% inhibitory activity)/(0% inhibitory activity−100% inhibitory activity))×100 (11) By the following formula, inhibitory activity was calculated at 10 points with three fold serial dilution, in the final concentration of the compound from 10 μmmol/L to 0.5 nmol/L. The IC50 value was calculated by dose-response curve. 100−[(fluorescent intensity in the presence of the compound−fluorescent intensity of back ground)/(total fluorescent intensity−fluorescent intensity of back ground)]×100 (12) In the presence of the compound, activity of 4α-PDD was measured at 9 points with three fold serial dilution from 20 μmol/L. Activity of 4α-PDD was calculated by the following formula. (Max-Min value of the each 4α-PDD concentration−0% activity)/(100% activity−0% activity))×100 (13) Effective activity was calculated in 4α-PDD the above. The EC50 value was calculated by dose-response curve. (14) The Ki value of a compound was calculated by the following formula. Ki (nmol/L)=IC50 value (nmol/L)/([A]/EC50 value (nmol/L)) [A]; Concentration of agonist (nmol/L)

A short description of data set [3]: Solubility test. In kind it is physicochemical. The following applies: fassgf or other biorelevant, kinetic from dmso stock, artificial intestinal juice pH 6.8, 16 hours at 25° C. Here is the method: The solubility of each compound is determined under 1% DMSO addition conditions. A 10 mmol/L solution of the compound is prepared with DMSO, and 6 μL of the compound solution is added to 594 μL of an artificial intestinal juice (water and 118 mL of 0.2 mol/L NaOH reagent are added to 250 mL of 0.2 mol/L potassium dihydrogen phosphate reagent to reach 1000 mL) with a pH of 6.8. The mixture is left standing for 16 hours at 25° C., and the mixture is vacuum-filtered. The filtrate is two-fold diluted with methanol/water=1/1, and the compound concentration in the filtrate is measured with HPLC or LC/MS/MS by the absolute calibration method.

Where [4] appears, read: artificial intestinal juice (phosphate buffer) with 1% DMSO.

≈ marks a conversion by molar mass, not a printed value. Bounds are passed on as bounds.

The IC50 is the point on the concentration scale where inhibition reaches its midpoint. Lower therefore signals higher potency. Usually Ki stands for a measure of affinity in units of concentration, obtained from inhibition or displacement. The term solubility denotes how much of the substance goes into solution per volume. Low readings indicate a poorly soluble substance, high ones a readily soluble substance.

T1 sequence (Q9HBA0 whole entry): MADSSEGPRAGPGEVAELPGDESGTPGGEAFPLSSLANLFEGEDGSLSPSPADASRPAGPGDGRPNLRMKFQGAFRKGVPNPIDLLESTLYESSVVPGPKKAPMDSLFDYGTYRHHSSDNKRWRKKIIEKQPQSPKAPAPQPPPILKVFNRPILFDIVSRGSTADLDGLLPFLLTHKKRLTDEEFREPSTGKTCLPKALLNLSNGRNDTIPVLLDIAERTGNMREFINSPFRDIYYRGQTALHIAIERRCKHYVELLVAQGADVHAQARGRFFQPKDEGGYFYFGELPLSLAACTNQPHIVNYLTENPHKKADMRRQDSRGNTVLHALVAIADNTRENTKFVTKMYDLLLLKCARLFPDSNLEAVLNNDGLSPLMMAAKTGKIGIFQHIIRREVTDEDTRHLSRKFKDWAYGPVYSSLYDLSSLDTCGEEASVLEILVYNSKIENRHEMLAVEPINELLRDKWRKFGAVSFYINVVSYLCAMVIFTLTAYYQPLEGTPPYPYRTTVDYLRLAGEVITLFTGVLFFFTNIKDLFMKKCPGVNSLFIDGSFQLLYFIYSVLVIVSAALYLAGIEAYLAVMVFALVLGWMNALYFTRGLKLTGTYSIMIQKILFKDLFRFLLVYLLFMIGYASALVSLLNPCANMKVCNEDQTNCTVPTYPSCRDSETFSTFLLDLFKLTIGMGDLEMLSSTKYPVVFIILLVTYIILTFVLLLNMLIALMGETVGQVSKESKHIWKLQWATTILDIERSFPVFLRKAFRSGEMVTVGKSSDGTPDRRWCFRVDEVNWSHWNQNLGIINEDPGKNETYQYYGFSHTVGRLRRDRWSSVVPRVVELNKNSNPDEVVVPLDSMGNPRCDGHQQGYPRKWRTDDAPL

In data set [1], `Cc1c(C(=O)Nc2cccc(C(F)(F)F)c2)cc(-c2ccccc2)n1CCCN(C)C(=O)c1ccno1` [Compound I-063] registered an IC50 of 510 nM. In addition, the Ki in data set [2] is 251 nM.
For `O=C(Nc1cccc(C(F)(F)F)c1)c1cc(-c2ccccc2)n(CCCN2CCOCC2)c1C(F)(F)F` [Compound I-028], in that order: 3800 nM and 1710 nM.
For `Cc1c(C(=O)Nc2cccc(C(F)(F)F)c2)cc(-c2ccccc2)n1CCCN1CCCCC1` [Compound I-008], in that order: 82 nM and 327 nM.
For `Cc1c(C(=O)Nc2cccc(C(F)(F)F)c2)cc(-c2ccccc2)n1CCCN(C)CC(C)C` [Compound I-032], in that order: 640 nM and 1610 nM.
For the compound `Cc1c(C(=O)Nc2cccc(C(F)(F)F)c2)cc(C2CCN(S(C)(=O)=O)CC2)n1CCCN1CCOCC1` [Compound I-078], in data set [1], the IC50 amounted to 4900 nM and the Ki is 2100 nM. The solubility at 16 h in data set [3] (setting [4]) came out at 20.1 µM (≈ 11.2 µg/mL).
For `O=C(Nc1cccc(C(F)(F)F)c1)c1cc(-c2ccccc2)n(CCCN2CCOCC2)n1` [Compound I-086], in that order: 3400 nM, 1600 nM and 8.3 µM (≈ 3.81 µg/mL).
`Cc1c(C(=O)Nc2ccc(C(F)(F)F)cc2)cc(-c2ccccc2)n1CCCN1CCOCC1` [Compound I-024] showed an IC50 in data set [1] of 340 nM. Further, the Ki in data set [2] was 755 nM.
For `CC(=O)NCCCn1c(-c2ccccc2)cc(C(=O)Nc2cccc(C(F)(F)F)c2)c1C` [Compound I-025] the same measures were 3200 nM and 1130 nM.
Consider `Cc1c(C(=O)Nc2cccc(C(F)(F)F)c2)cc(-c2ccccc2)n1CCCO` [Compound I-006], for which it took 2300 nM to reach half-maximal inhibition in data set [1] (IC50). In addition, the inhibition constant Ki in data set [2] was 1060 nM.
For `CC(=O)N(C)CCCn1c(-c2ccccc2)cc(C(=O)Nc2cccc(C(F)(F)F)c2)c1C` [Compound I-070], in that order: 590 nM and 1680 nM.
`Cc1c(C(=O)Nc2cccc(C(F)(F)F)c2)cc(-c2ccccc2)n1CCN1CCOCC1` [Compound I-083]: in data set [1], 400 nM corresponded to half-maximal inhibition (IC50). Besides, the Ki in data set [2] was 443 nM.
For `Cc1c(C(=O)Nc2cccc(C(F)(F)F)c2)cc(-c2ccccn2)n1CCCN1CCOCC1` [Compound I-073], in data set [1], half-maximal inhibition (IC50) was put at 340 nM and the Ki was 160 nM. Further, the solubility at 16 h in data set [3] (setting [4]) came out at 28.9 µM (≈ 13.7 µg/mL).
The compound `Cc1c(NC(=O)Nc2cccc(C(F)(F)F)c2)cc(-c2ccccc2)n1CCCN1CCOCC1` [Compound I-081] had an IC50 in data set [1] of 3900 nM. The Ki in data set [2] was 1610 nM.
On to `Cc1c(C(=O)Nc2cccc(C(F)(F)F)c2)nc(-c2ccccc2)n1CCCN1CCOCC1` [Compound I-087], for which the solubility at 16 h in data set [3] (artificial intestinal juice (phosphate buffer), 1% DMSO) turned out to be 5.2 µM (≈ 2.46 µg/mL). This counts as single-digit micromolar.
For the compound `O=C(Nc1cccc(C(F)(F)F)c1)c1cc(-c2ccccc2)nn1CCCN1CCOCC1` [Compound I-085], in data set [1], the IC50 stood at 1300 nM and the Ki was 590 nM. The same compound gave a solubility at 16 h in data set [3] (setting [4]) of 14.5 µM (≈ 6.65 µg/mL).
For `CC(=O)N1CCC(c2cc(C(=O)Nc3cccc(C(F)(F)F)c3)c(C)n2CCCN2CCOCC2)CC1` [Compound I-077] the same measures were 4700 nM, 2000 nM and more than 50 µM.
`COCCCn1c(-c2ccccc2)cc(C(=O)Nc2cccc(C(F)(F)F)c2)c1C` [Compound I-010]: in data set [1], half-maximal inhibition (IC50) was put at 800 nM. The Ki in data set [2] is 714 nM.
For `Cc1c(C(=O)Nc2cccc(C(F)(F)F)c2)cc(-c2ccccc2)n1CCCN(C)C(=O)C1CCCC1` [Compound I-049] the same measures were 240 nM and 418 nM.
On to `CC(=O)N1CCN(CCCn2c(-c3ccccc3)cc(C(=O)Nc3cccc(C(F)(F)F)c3)c2C)CC1` [Compound I-015], for which the IC50 in data set [1] was determined as 2600 nM. Moreover, in data set [2], the Ki was 1440 nM.
For `COC(=O)NCCCn1c(-c2ccccc2)cc(C(=O)Nc2cccc(C(F)(F)F)c2)c1C` [Compound I-027] the same measures were 1800 nM and 936 nM.
